One may read the IC50 as the midpoint of a concentration-inhibition curve.

For 2 molecules, inhibition and IC50 results are on record in patent publication US20260216180A1, “QUINOLINE DERIVATIVE COMPOUNDS OR PHARMACEUTICALLY ACCEPTABLE SALT THEREOF, PREPARATION METHOD THEREFOR AND USE THEREOF” (JIANGSU CAREPHAR PHARMACEUTICAL CO.,LTD., priority 2023, published 2026).

In test [1] the test system is IL-6. As to the kind of experiment: Macrophage IL-6 secretion after LPS (ELISA). To be noted: Bone marrow macrophage, compared to 0 μM, mouse bone marrow macrophages, 200 ng/ml LPS, 6 hours, read-out: Inhibition rate of IL-6 at 10 μM concentration. The format is cell-based. On the procedure:
(§1) Pharmacological Activity Test: Regulatory Effect of Quinoline Derivatives on Macrophage IL-6 and TNF-α Secretion
(§2) Mouse bone marrow cells were isolated from the femur and tibia bone marrow of […] mice of 6-8 week old raised under SPF conditions and inoculated in 6-well plates at a density of 1.5*10^6 cells/well/2 mL. 50 ng/mL M-CSF was added to each well and the cells were cultured in a CO2 incubator for 3 days. On the third day, the culture medium was replaced with fresh medium containing 100 ng/mL M-CSF and the culture was continued for 3 days. On the 6th day, the supernatant was removed and the cells were washed once with DPBS. After adding 1 mL of DPBS, the macrophages were harvested using a cell scraper, centrifuged at 400 g for 10 min, and the supernatant was discarded. The cells were resuspended in fresh culture medium containing 50 ng/mL M-CSF, inoculated in a 96-well plate at a density of 2*10^4 cells/well/200 μL, and cultured in a CO2 incubator overnight. 0, 3, 5, […] of the test compound were added to each well (wherein well 0 contains 0.1% DMSO) respectively and incubate in a CO2 incubator for 1 hour. Then 200 ng/ml LPS was added and the cell supernatant was collected after 6 hours of co-culture. ELISA kits were used to detect the secretion levels of IL-6 and TNF-α.

Test [2] deals with TNF-α. As to the kind of experiment: Macrophage TNF-α secretion after LPS (ELISA). Type of test: cell-based. The note with it: Bone marrow macrophage, compared to 0 μM, mouse bone marrow macrophages, 200 ng/ml LPS, 6 hours, read-out: Inhibition rate of TNFα at 10 μM concentration. Here is the method: as §1, §2
In test [3] the target is T1, CYP2C8 (Homo sapiens, UniProt P10632).
T1 construct: Commercially available mixed human liver microsomes were used; from tissue; host or cells: pooled human liver microsomes
T1 sequence (P10632 1-490): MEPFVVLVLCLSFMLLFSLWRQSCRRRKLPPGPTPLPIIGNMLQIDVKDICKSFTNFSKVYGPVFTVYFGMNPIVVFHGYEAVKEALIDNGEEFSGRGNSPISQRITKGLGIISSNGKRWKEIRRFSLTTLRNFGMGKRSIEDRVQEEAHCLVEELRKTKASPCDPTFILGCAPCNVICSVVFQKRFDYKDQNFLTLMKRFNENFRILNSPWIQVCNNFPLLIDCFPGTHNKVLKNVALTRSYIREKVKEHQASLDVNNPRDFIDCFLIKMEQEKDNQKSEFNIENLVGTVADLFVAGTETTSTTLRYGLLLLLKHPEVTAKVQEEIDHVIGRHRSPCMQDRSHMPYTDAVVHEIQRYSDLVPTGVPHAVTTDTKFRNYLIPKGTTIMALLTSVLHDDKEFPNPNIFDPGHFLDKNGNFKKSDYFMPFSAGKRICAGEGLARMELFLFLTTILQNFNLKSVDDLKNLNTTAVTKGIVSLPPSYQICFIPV
As to the kind of experiment: CYP enzyme inhibition, human liver microsomes, CYP2C8. To be noted: probe substrate Amodiaquine, read-out: IC50 CYP 2C8. The format is in vitro ADME. On the procedure: (§3) Commercially available mixed human liver microsomes were used, with the liver microsome concentrations of diclofenac, dextromethorphan, and midazolam being 0.1 mg/mL; and the liver microsome concentrations of phenacetin, bupropion, amodiaquine, mephenytoin, and testosterone being 0.2 mg/mL. Probe substrate, specific inhibitor and test compound (ABX464, compound 18) were diluted to the corresponding concentration of working solution for use. A mixed solution containing liver microsomes, MgCl2, substrate, […] inhibitor, and the test compound was prepared. After the incubation, 600 μL of ice-cold ACN working solution containing IS was added to terminate the reaction, and the mixture was centrifuged and used for LC-MS/MS detection. [table] At different concentrations of the test compound or positive inhibitor, the percentage of remaining activity is determined by the ratio of the amount of characteristic metabolites of the probe substrate generated to the corresponding amount generated in the absence of the test compound or positive inhibitor. […]

Test [4] has as its target T2, CYP2D6 (Homo sapiens, UniProt P10635).
T2 construct: Commercially available mixed human liver microsomes were used; from tissue; host or cells: pooled human liver microsomes
Briefly: CYP enzyme inhibition, human liver microsomes, CYP2D6. The format is in vitro ADME. The note with it: probe substrate Dextromethorphan, read-out: IC50 CYP 2D6. On the procedure: as §3

In test [5] the target is T3, CYP3A4 (Homo sapiens, UniProt P08684).
T3 construct: Commercially available mixed human liver microsomes were used; from tissue; host or cells: pooled human liver microsomes
As to the kind of experiment: CYP enzyme inhibition, human liver microsomes, CYP3A4. Type of test: in vitro ADME. On the procedure: Commercially available mixed human liver microsomes were used, with the liver microsome concentrations of diclofenac, dextromethorphan, and midazolam being 0.1 mg/mL; and the liver microsome concentrations of phenacetin, bupropion, amodiaquine, mephenytoin, and testosterone being 0.2 mg/mL. Probe substrate, specific inhibitor and test compound (ABX464, compound 18) were diluted to the corresponding concentration of working solution for use. A mixed solution containing liver microsomes, MgCl2, substrate, […] inhibitor, and the test compound was prepared. After the incubation, 600 μL of ice-cold ACN working solution containing IS was added to terminate the reaction, and the mixture was centrifuged and used for LC-MS/MS detection. [table] At different concentrations of the test compound or positive inhibitor, the percentage of remaining activity is determined by the ratio of the amount of characteristic metabolites of the probe substrate generated to the corresponding amount generated in the absence of the test compound or positive inhibitor. If a significant decrease in the amount of metabolite production is found at the highest concentration setting point, the half inhibitory concentration (IC50) will be calculated using the log(inhibitor) vs. response—Variable slope formula of GraphPad Prism software: Y=Bottom+(Top−Bottom)/(1+10^((Log IC50−X)*Hillslope)) • X: Log (test compound or positive inhibitor concentration); • Y: Remaining activity percentage; • Top and Bottom: refer to the theoretical maximum and minimum remaining activity percentages respectively; and • Hillslope: slope coefficient or slope. If there is no significant decrease in metabolite production at the highest concentration setting point (percentage of enzyme remaining activity […]), the half inhibitory concentration (IC50) cannot be accurately calculated, and the reported IC50 is greater than the highest concentration tested.
(In general: Liver microsomes are vesicles of endoplasmic reticulum, rich in cytochrome P450 enzymes.)

[6] abbreviates: probe substrate Midazolam, read-out: IC50 CYP 3A4-Midazolam.
[7] abbreviates: probe substrate Testosterone, read-out: IC50 CYP 3A4-Testosterone.

Read-outs that look alike come from different tables or passages of the source.

T3 sequence (P08684 whole entry): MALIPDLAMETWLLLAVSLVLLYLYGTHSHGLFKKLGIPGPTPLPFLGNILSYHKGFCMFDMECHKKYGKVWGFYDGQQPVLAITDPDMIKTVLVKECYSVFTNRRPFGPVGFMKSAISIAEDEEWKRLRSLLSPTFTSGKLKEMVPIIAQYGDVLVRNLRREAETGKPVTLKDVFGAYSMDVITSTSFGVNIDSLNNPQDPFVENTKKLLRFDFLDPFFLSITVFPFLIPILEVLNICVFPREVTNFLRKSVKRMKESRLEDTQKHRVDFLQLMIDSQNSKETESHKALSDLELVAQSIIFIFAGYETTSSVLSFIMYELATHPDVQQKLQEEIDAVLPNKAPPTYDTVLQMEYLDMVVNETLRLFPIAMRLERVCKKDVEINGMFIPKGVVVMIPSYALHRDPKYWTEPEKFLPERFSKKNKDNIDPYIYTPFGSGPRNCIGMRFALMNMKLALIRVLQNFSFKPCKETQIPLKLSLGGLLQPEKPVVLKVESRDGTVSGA
T2 sequence (P10635 whole entry): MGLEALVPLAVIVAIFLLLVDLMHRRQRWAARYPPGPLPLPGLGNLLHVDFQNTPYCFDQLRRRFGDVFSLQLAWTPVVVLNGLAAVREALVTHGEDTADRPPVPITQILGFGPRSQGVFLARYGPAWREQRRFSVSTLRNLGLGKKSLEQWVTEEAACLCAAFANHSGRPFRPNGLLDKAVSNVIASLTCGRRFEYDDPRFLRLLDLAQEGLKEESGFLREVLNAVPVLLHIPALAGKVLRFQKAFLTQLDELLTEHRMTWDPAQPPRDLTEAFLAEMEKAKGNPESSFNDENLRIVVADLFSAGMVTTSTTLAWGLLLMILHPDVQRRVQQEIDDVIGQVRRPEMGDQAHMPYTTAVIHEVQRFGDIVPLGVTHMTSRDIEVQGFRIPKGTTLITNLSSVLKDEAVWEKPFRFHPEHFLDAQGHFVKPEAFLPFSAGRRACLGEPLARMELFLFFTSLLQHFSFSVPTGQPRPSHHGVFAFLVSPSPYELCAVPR

Turning to `FC(F)(F)Oc1ccc(Nc2ccc3cccc(Cl)c3n2)cc1` [ABX464, reference compound], the figures for the inhibition at 10 µM in test [1] and in test [2] were 61% and 80%, respectively. Further, the IC50 in test [3] was 35.9 µM; in test [4], 17.2 µM; in test [5] (setting [6]), 73 µM; in test [5] (setting [7]), over 100 µM.
Turning to `Fc1cc(Cl)c2nc(Nc3ccc(C4(C(F)(F)F)CC4)cc3)ccc2c1` [Compound 18, 8-chloro-6-fluoro-N-(4-(1-(trifluoromethyl)cyclopropyl)phenyl)quinolin-2-amine], the inhibition at 10 µM in test [1] came to 88%; in test [2], 94%. Moreover, the IC50 in test [3] was 40.4 µM; in test [4], 48 µM; in test [5] (setting [6]) it was over 100 µM; in test [5] (setting [7]) it was over 100 µM.
